Measurements published in patent US20160168118A1, “N-(5-QUINOLIN-6-YL)PYRIDIN-3-YL) BENZSULFAMIDE DERIVATIVES, PREPARATION METHOD AND THERAPEUTIC USE THEREOF” (SECOND MILITARY MEDICAL UNIVERSITY, PLA, priority 2012, published 2016).
Converted amounts (≈) assume the structure as drawn. Read-outs that look alike come from different tables or passages of the source.

Key:
[1] = system: U87MG (human brain star glioblastoma); assay: MTT assay, U87MG; assay type: cell-based; settings: U-87 MG, 72 h
Experimental: (§1) 1. Sample preparation: After dissolved with DMSO (Merck), PBS (−) was added to make 1000 μg/ml solution or a uniform suspension, and then diluted with PBS (−) containing the DMSO. Doxorubicin (DOX) was used as the positive control drug.
(§2) 2. Cell Line • 1) A549 (human lung cancer cells); 2) HCT116 (human colon cancer cells); 3) HepG2 (human hepatoma cells); 4) ZR-75-30 (human breast cancer cells); 5) U87MG (human brain star glioblastoma)
(§3) DMEM+5-10% FBS+double resistant
(§4) MTT assay. 100 μl cell suspension was added at a concentration of 4˜5×10^4 cells/ml to each well of a 96-well plate, and was set at 37° C., 5% CO2 in the incubator. After 24 h, the sample solution was added, 10 μl/hole, double wells were set, 37° C., acting for 72 h at 5% CO2. […] of 5 mg/ml was added to each well, the dissolving liquid was added after acted for 4 h, 100 μl/hole, kept in the incubator, and read 570 nm OD with MK-2 automatic microplate reader after dissolution.

[2] = system: human lung carcinoma A549 xenografts; assay: In vivo efficacy on human lung carcinoma A549 xenografts in nude mice; design: species or system BALB/C nude mice; settings: ig, GSK2126458 3 mg/kg, compound 9 10 mg/kg
Text: Strain: BALB/C nude mice (SPF grade), Source: Shanghai Slac laboratory animal limited liability company, the production license number: SCXK (Shanghai) 2007-0005, the using license number: SYXK (Shanghai) 2009-0068, gender: male, weight: 18-20 g, the number of animals per group: 6.
A549 solid tumors which were well-grown were taken, cut to uniform bits of about 3 mm size under aseptic condition, every bit was inoculated to each mouse subcutaneously in the right armpit with trocar, and randomly divided into three groups, each treatment was:
1) Control (saline), gavage, the dose 25 ml/kg, 14 days;
3) Compound 9, gavage, the dose 10 mg/kg, 14 days;
Regrouped according to tumor size on the 13th day after inoculation, the animals of which tumor size is too large and too small were eliminated, the average tumor volume of each group are basically the same. Administration was carried out according to the above regimen; the dosing volume was 0.5 ml/20 g body weight. The axis (a), shorter diameter (b) of tumor was measured 2 times a week with an electronic digital caliper, calculate formula of tumor volume (tumor volume, TV) is as follows: TV=1/2×a×b2, calculate formula of relative tumor volume (relative tumor volume, RTV), is as follows: RTV=Vt/Vo, wherein Vo is the tumor volume measured at the time when dividing cages (i.e. dl), Vt is the tumor volume measured each time. […] T test was conducted. Animals were sacrificed 30 days after inoculation, dissected and the tumor mass were taken, tumor weight was measured.

[3] = system: A549 (human lung cancer cells); assay: MTT assay, A549; assay type: cell-based; settings: 72 h
Experimental: as §1, §2, §3, §4

PI3Kγ = PI3Kγ (Homo sapiens, UniProt P48736); assay: ADP-Glo Luminescent Kinase Assay, PI3Kγ; assay type: biochemical; settings: read-out: IC50 on PI3K gamma
[4] = Solubility test in buffer solution at pH=1; assay type: physicochemical; settings: pH=1 buffer solution, simulated gastric fluid, thermodynamic from solid; buffer solution pH=1
Experimental: Compound 9 1.02 mg was precisely weighed and placed in 1.5 mL of EP tube, and 10 uL pH=1 buffer solution was added, vortexed for 30S and ultrasonic for 20 min. There was a lot of visible turbidity after that.
20 uL buffer was added and ultrasounded and the solution was found still turbid. Turbidity reduced after the solution was diluted to 1 mL and vortexed, while there still exist residual after diluted to 2 mL.

[5] = system: HCT116 (human colon cancer cells); assay: MTT assay, HCT116; assay type: cell-based; settings: HCT-116, 72 h
PI3Kβ = PI3Kβ (Homo sapiens, UniProt P42338); assay: ADP-Glo Luminescent Kinase Assay, PI3Kβ; assay type: biochemical; settings: read-out: IC50 on PI3K beta
mTOR = mTOR (Homo sapiens, UniProt P42345); assay: Lance Ultra Assay, mTOR; assay type: biochemical
A549 = assay: NCI cytotoxicity test, A549; assay type: cell-based; settings: Homo sapiens
Text: (§5) Cytotoxicity Test of Compound 9, 10 and 17 on 60 Kinds of Human Cancer Cell Lines from the US National Cancer Institute

PI3K delta = PI3K delta (Homo sapiens, UniProt O00329); assay: Kinase-Glo Luminescent Kinase Assay, PI3K delta; assay type: biochemical
[6] = system: 60 kinds of human cancer cell lines; assay: Cytotoxicity test on 60 kinds of human cancer cell lines from the US National Cancer Institute; assay type: cell-based
Text: as §5

COLO205 = assay: NCI cytotoxicity test, COLO205; assay type: cell-based; settings: Homo sapiens, COLO 205
Text: as §5

SF539 = assay: NCI cytotoxicity test, SF539; assay type: cell-based; settings: Homo sapiens, SF-539
Text: as §5

PI3Kα = PI3Kα (Homo sapiens, UniProt P42336); assay: Kinase-Glo Luminescent Kinase Assay, PI3Kα; assay type: biochemical
MCF7 = assay: NCI cytotoxicity test, MCF7; assay type: cell-based; settings: Homo sapiens
Text: as §5

OVCAR3 = assay: NCI cytotoxicity test, OVCAR3; assay type: cell-based; settings: Homo sapiens, OVCAR-3
Text: as §5

five human tumor cells = assay: MTT assay, five human tumor cells (summary in words); assay type: cell-based; settings: A549, HCT116, HepG2, ZR-75-30, U87MG
Experimental: as §1, §2, §3, §4

SN12C = assay: NCI cytotoxicity test, SN12C; assay type: cell-based; settings: Homo sapiens
Text: as §5

PC3 = assay: NCI cytotoxicity test, PC3; assay type: cell-based; settings: Homo sapiens, PC-3
Text: as §5

PI3Kγ, sequence (P48736 whole entry, species assumed): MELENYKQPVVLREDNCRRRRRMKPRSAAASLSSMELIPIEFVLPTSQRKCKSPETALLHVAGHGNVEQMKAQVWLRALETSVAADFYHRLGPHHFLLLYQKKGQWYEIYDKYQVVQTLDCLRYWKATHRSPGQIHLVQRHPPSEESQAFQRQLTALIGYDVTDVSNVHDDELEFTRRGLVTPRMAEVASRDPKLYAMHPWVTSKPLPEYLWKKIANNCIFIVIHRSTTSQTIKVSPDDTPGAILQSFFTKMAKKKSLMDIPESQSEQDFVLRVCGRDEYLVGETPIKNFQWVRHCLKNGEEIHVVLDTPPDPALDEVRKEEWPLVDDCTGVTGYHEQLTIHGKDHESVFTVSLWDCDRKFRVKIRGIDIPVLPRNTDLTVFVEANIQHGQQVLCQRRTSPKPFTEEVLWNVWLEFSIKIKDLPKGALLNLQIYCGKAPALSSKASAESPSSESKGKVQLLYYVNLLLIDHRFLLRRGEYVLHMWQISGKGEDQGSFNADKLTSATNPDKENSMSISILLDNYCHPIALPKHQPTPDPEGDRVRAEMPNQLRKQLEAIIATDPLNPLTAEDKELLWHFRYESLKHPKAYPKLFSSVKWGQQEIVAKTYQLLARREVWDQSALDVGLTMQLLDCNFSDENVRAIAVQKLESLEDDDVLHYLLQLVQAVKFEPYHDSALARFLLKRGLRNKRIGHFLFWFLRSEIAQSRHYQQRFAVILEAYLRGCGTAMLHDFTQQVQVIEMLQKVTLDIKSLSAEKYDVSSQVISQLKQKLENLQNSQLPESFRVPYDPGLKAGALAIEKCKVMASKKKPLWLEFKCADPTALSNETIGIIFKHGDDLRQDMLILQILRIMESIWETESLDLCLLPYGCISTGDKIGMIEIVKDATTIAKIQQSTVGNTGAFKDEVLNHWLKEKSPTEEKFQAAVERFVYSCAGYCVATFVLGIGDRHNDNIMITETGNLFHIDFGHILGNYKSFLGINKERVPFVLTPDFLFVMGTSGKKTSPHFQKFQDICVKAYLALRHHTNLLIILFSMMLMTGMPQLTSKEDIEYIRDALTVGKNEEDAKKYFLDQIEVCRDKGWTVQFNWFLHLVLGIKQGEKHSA
PI3Kα, sequence (P42336 whole entry, species assumed): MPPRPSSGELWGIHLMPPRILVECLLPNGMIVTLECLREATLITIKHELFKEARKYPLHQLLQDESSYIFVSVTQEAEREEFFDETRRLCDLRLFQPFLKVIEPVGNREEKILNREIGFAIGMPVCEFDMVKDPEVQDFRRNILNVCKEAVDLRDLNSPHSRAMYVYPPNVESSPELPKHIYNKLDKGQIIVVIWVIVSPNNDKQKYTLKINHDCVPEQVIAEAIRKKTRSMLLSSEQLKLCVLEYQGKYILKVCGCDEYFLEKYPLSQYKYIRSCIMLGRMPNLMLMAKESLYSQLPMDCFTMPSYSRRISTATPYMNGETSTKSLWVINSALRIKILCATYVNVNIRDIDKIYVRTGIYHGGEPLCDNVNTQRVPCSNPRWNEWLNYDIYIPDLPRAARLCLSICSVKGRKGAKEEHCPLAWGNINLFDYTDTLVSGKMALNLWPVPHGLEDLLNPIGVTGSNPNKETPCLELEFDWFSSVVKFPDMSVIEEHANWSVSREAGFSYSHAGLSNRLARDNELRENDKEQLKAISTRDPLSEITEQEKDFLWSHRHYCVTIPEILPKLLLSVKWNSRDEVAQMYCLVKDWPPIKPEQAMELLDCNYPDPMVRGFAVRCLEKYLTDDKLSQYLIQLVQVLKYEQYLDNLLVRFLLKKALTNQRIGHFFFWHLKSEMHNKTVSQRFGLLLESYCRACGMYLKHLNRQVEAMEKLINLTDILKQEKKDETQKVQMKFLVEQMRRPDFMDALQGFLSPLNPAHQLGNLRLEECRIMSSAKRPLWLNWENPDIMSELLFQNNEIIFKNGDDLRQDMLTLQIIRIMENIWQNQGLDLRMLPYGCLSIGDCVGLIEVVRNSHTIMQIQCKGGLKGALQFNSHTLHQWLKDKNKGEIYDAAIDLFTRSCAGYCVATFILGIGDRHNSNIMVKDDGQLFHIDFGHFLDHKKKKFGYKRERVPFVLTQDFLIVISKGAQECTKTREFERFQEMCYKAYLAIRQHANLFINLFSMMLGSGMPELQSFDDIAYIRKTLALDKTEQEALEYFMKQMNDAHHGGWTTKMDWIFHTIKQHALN
PI3Kα, sequence (P27986 whole entry partner, species assumed): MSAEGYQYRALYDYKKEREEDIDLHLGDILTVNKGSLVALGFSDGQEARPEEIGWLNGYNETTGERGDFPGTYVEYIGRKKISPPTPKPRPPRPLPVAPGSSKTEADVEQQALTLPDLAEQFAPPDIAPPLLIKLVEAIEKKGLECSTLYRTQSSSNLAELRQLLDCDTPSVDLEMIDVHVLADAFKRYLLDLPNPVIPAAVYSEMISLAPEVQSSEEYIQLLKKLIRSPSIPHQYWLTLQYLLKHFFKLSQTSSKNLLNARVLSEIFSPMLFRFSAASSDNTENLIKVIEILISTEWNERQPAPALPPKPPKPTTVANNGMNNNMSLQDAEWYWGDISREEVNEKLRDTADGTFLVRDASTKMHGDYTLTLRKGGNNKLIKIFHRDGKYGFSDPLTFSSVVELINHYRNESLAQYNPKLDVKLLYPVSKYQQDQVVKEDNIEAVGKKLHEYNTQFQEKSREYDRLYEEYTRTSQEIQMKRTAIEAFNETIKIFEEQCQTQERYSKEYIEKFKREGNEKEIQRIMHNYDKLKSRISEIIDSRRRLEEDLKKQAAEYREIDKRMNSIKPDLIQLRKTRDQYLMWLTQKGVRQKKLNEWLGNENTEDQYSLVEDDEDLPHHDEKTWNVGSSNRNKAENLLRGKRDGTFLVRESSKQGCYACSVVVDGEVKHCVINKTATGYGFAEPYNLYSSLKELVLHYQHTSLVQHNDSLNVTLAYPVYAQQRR
PI3K delta, sequence (O00329 whole entry): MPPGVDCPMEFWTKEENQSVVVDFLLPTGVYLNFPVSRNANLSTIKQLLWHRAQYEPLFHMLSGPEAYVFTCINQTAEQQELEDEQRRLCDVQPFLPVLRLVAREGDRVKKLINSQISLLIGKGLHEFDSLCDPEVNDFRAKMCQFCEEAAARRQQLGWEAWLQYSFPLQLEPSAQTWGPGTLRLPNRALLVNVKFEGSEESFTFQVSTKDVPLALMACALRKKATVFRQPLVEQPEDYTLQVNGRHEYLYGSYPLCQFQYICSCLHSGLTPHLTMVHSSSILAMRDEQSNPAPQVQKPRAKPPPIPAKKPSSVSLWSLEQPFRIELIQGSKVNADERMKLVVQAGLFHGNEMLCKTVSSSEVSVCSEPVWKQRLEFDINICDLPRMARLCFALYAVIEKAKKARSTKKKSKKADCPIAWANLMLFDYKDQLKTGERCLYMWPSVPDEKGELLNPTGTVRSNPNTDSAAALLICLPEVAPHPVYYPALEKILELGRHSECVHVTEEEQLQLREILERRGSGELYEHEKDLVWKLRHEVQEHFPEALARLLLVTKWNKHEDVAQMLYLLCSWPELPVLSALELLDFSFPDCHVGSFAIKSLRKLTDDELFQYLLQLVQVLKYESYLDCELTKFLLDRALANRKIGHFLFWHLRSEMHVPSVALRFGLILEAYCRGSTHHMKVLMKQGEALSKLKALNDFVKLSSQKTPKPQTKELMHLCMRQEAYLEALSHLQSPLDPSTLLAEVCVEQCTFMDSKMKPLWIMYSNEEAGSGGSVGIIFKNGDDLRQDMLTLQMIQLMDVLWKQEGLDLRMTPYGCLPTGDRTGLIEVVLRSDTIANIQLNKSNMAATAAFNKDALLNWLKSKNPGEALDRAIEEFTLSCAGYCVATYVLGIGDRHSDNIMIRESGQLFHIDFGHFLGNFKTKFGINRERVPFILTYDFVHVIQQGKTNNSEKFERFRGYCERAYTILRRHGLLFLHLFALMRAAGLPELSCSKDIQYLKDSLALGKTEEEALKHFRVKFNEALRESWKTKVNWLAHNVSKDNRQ
PI3K delta, sequence (P27986 whole entry partner): as the sequence (P27986 whole entry partner, species assumed) above
PI3Kβ, sequence (P42338 whole entry, species assumed): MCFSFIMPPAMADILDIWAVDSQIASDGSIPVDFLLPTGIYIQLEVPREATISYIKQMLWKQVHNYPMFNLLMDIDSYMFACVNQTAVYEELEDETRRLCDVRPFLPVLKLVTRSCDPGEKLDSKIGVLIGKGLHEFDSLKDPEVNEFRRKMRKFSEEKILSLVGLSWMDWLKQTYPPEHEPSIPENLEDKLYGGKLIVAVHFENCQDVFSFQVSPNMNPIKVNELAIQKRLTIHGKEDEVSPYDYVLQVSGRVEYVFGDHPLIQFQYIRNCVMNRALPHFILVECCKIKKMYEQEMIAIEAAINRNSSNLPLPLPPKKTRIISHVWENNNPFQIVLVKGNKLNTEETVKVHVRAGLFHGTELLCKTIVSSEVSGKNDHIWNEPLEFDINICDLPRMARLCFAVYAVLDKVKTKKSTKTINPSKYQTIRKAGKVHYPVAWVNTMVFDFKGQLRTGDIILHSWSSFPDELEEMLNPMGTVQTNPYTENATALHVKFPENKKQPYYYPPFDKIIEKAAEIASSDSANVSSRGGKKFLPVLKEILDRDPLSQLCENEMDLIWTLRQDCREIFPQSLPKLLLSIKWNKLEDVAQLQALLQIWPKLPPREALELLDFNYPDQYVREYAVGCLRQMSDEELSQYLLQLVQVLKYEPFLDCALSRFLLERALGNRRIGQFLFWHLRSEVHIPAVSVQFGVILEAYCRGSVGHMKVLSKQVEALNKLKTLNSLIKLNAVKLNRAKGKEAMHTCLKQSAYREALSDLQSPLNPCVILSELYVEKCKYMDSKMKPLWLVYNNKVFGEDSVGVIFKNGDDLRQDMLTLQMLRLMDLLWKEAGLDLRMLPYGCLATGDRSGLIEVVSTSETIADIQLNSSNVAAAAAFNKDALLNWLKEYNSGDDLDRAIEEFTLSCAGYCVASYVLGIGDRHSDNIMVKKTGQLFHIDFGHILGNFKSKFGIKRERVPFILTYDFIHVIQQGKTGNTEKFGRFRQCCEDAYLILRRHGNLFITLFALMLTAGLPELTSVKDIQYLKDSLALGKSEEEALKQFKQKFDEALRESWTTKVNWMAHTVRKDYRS
PI3Kβ, sequence (P27986 whole entry partner, species assumed): as the sequence (P27986 whole entry partner, species assumed) above

COc1ncc(-c2ccc3nccc(-c4ccnnc4)c3c2)cc1NS(=O)(=O)c1ccc(F)cc1F [GSK2126458, reference compound]
IC50 [1]: 0.537 µg/mL (≈ 1.06 µM) | Tumor Inhibition rate % [2]: 65.93% | Animal wight (g) (tumor removed) ([2]; at end): 21.41 ± 1.49 g | RTV (d18) x ± SD ([2]; d18): 6.91 ± 1.97 | IC50 [3]: 0.014 µg/mL (≈ 0.0277 µM) | IC50 (PI3Kγ): 0.61 nM | solubility at 20 min [4]: 200 µg/mL (≈ 396 µM)

COc1ncc(-c2ccc3nccc(-c4ccc(Cn5cncn5)cc4)c3c2)cc1NS(=O)(=O)c1ccc(F)cc1F [Compound 10, N-(5-(4-(4-((1H-1,2,4-triazole-1-yl)methyl)phenyl)quinolin-6-yl)-2-methoxypyridine-3-yl)-2,4-difluorobenzenesulfonamide]
IC50 [5]: 0.00507 µg/mL (≈ 0.00867 µM) | IC50 [1]: 0.129 µg/mL (≈ 0.221 µM) | IC50 (PI3Kβ): 1.7 nM | IC50 (mTOR): 1.1 nM | GI50 (A549): < 10 nM | IC50 (PI3K delta): 2.8 nM | melting point: 121 to 123 °C | IC50 [3]: 0.00927 µg/mL (≈ 0.0159 µM) | GI50 ([6]; on the 36 tumor cell lines, read-out: average half growth inhibitory concentration (GI50)): < 10 nM | GI50 ([6]; on the 60 kinds of tumor cells, read-out: Average GI50): 15.1 nM | GI50 (COLO205): < 10 nM | GI50 (SF539): < 10 nM | IC50 (PI3Kα): 0.65 nM | GI50 (MCF7): < 10 nM | GI50 (OVCAR3): < 10 nM | in vitro proliferation inhibition (in words) (five human tumor cells): high in vitro proliferation inhibition | GI50 (SN12C): < 10 nM | GI50 (PC3): < 10 nM | IC50 (PI3Kγ): 0.74 nM
